Assay results from patent publication US20120288509A1, “ANALYSIS OF METHYLATED NUCLEIC ACID” (priority 2004, published 2012).

Tested on: SW48 cells
Assay: 5-Aza-dC treatment and RT-PCR: reactivation of silenced genes in SW48 cells
Assay type: cell-based
Conditions: SW48 colon cancer cells, 5 μM 5-Aza-dC for 4 days, subset of candidate genes, versus untreated cells
Excerpt: FIG. 3: Validation of novel targets for aberrant methylation in colon cancer. A. Primers for PCR were designed for positive clones identified in the microarray analysis as hypermethylated in SW48 cells. DNA methylation was controlled by Single-gene PCR on enriched methylated samples prepared from WI38 primary fibroblasts and SW48 colon cancer cells according to the method described above. IN=input genomic DNA, M=enriched methylated DNA. As a separate control the inventors analyzed samples prepared from matched normal colon (N) and colon tumor (T) from three patients. MLH1 and RASSF1A have previously been described to be aberrantly methylated in SW48 cells and in some colon tumors. The imprinted H19 ICR sequence serves as a positive control for methylation. B. Control of methylation status by methylation-sensitive restriction. Genomic DNA was either digested with the methylation-sensitive HpaII enzyme or undigested and used as a PCR template with primers spanning a HpaII-containing PCR fragments in three randomly selected positive clones (top) and negative clones (bottom). The number of HpaII sites within the PCR amplicon is indicated in parenthesis. Presence of a PCR product after HpaII digest reflects DNA methylation in the sample and in each case confirms the above described enrichment analysis. C. Reactivation of silenced genes in SW48 cells by 5-Aza-dC treatment. […]

## Nc1ncn([C@H]2C[C@H](O)[C@@H](CO)O2)c(=O)n1 [5-Aza-dC]
  transcription of silenced (methylated) genes by RT-PCR after treatment with the demethylating agent: derepression
